Measurements published in US20020049162A1, “Methods for inhibiting smooth muscle cell proliferation” (priority 2000, published 2002).
Entries after “also recorded” stand apart in the source; their conditions may differ. Square brackets hold non-standard residues; d marks the D form. Ends that are not written are not given here. Phe(4-NH2) = Nc1ccc(C[C@H](N)C(=O)O)cc1

What was measured:
[1] = tested on: Human coronary artery smooth muscle cells; test: Inhibition of human smooth muscle cell proliferation (cell counts, growth rate vs wells without peptide); assay type: cell-based; conditions: for % Control Proliferation Day 1 vs Day 4 / % Control Proliferation Day 1 vs Day 7: percentage of the control growth rate, values below 100 = inhibition, peptides 0.1-10 μg/ml, concentration not given; for Effect on proliferation of human smooth muscle cells (in words): compared with wells that did not contain peptide
[2] = tested on: smooth muscle cell; conditions: Strawn et al., Hypertension 33:207-211 (1999); cited from earlier work
[3] = tested on: smooth muscle cell growth after vascular injury; conditions: Strawn et al., Hypertension 33:207-211 (1999); cited from earlier work
[4] = tested on: AT2 receptor; conditions: cited from earlier work
[5] = Unspecified earlier test of effectiveness of AII fragments; conditions: test not described

Substance	% Control Proliferation Day 1 vs Day 4 [1] [%]	% Control Proliferation Day 1 vs Day 7 [1] [%]	Effect on proliferation of human smooth muscle cells (in words) [1]	also measured
A(1-7): AII residues 1-7, SEQ ID NO:4 (DRVYIHP) [reference compound]	73.3	63.3	–	Smooth muscle cell proliferation (in words) [2]: inhibit smooth muscle cell proliferation; Smooth muscle cell growth after vascular injury (in words) [3]: reduce smooth muscle cell growth after vascular injury
Asp—Arg—Val—Tyr—Ile—His—Pro—Phe (DRVYIHPF) [AII, reference compound]	121.4	154.5	increased the proliferation	Affinity for AT2 relative to AT1 ([4]; higher affinity for AT2 than AT1, Speth and Kim 1990): 100 times
His—Pro—Phe (HPF) [AII(6-8)]	–	–	–	Effectiveness (in words) [5]: not to be effective
DRP(OH)AIHP [Peptide 8GD]	72.6	66.4	inhibited smooth muscle cell proliferation	–
Asp—Arg—Val—Tyr—Ile—Xaa—Pro—Phe (DRVYI[Phe(4-NH2)]PF) [p-aminophenylalanine6-AII]	–	–	–	Binding characteristics (in words) ([4]; experimental models of Catalioto 1994, Bryson 1992): comparable to AT2 antagonists
DRVYIH [A(1-6)]	76.5	61.1	inhibited smooth muscle cell proliferation	–
Ile—His—Pro—Phe (IHPF) [A(5-8)]	63.1	55.0	inhibited smooth muscle cell proliferation	–
Arg—Val—Tyr—Ile—His—Pro (RVYIHP) [A(2-7)]	82.4	64.8	inhibited smooth muscle cell proliferation	–
DRVAIHP [Peptide 1GD]	55.4	54.2	inhibited smooth muscle cell proliferation	–
Val—Tyr—Ile—His—Pro—Phe (VYIHPF) [A(3-8)]	74.7	61.7	inhibited smooth muscle cell proliferation	–
Val—Tyr—Ile—His—Pro (VYIHP) [A(3-7)]	80.5	70.0	inhibited smooth muscle cell proliferation	–
Asp—Arg—Val—Tyr—Ile (DRVYI) [A(1-5)]	85.9	83.1	–	–
DRKYIHP [Peptide 5GD]	86.6	80.1	inhibited smooth muscle cell proliferation	–
Tyr—Ile—His—Pro—Phe (YIHPF) [AII(4-8)]	–	–	–	Effectiveness (in words) [5]: not to be effective; also recorded: ineffective
